Test results: the supplement of paper PMC10331698
± gives the standard deviation of the averaged measurements.

Columns and labels:
Assay in all cases: level (log10 ratio to DMSO vehicle control); higher = higher biomarker level / cell amount than vehicle control
Conditions in all cases: in DMSO
[1] = compound: O=S(=O)(O)CCC(F)(F)C(F)(F)C(F)(F)C(F)(F)C(F)(F)C(F)(F)F [6:2 Fluorotelomer sulfonic acid]
Method: (§1)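 BioMAP Diversity Plus panel of 12 human primary cell co-culture systems (3C, 4H, LPS, SAg, BT, BF4T, BE3C, CASM3C, HDF3CGF, KF3CT, MyoF, Mphg). Compounds were added 1 h before stimulation and left for 24 h (MyoF 48 h; BT 72 h for soluble read-outs or 6 d for IgG). Biomarkers were read by ELISA, cytotoxicity by SRB, PBMC viability and proliferation by Alamar Blue. Each well value was divided by the mean of 8 DMSO control wells on the same plate and log10 transformed; duplicate blinded samples were tested at 4 concentrations.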

Octafluoroadipamide = compound: NC(=O)C(F)(F)C(F)(F)C(F)(F)C(F)(F)C(N)=O [Octafluoroadipamide]
Method: as §1

[2] = compound: FC(F)(F)C(F)(F)C(F)(F)C(F)(F)C(F)(F)C(F)(F)CC1CO1 [3-(Perfluorohexyl)-1,2-epoxypropane]
Method: as §1

[3] = compound: FC(F)(F)C(F)(F)CNCC(F)(F)C(F)(F)F [Bis(1H,1H-perfluoropropyl)amine]
Method: as §1

[4] = compound: NC(=O)C(F)(F)C(F)(F)C(F)(F)C(F)F
Method: as §1

| Test System | level (log10) ([1]; 6700 nM) | level (log10) ([1]; 20000 nM) | level (log10) ([1]; 60000 nM) | level (log10) (Octafluoroadipamide; 6700 nM) | level (log10) (Octafluoroadipamide; 20000 nM) | level (log10) (Octafluoroadipamide; 60000 nM) | level (log10) ([2]; 6700 nM) | level (log10) ([2]; 20000 nM) | level (log10) ([2]; 60000 nM) | level (log10) ([3]; 6700 nM) | level (log10) ([3]; 20000 nM) | level (log10) ([3]; 60000 nM) | level (log10) ([4]; 6700 nM) | level (log10) ([4]; 20000 nM) | level (log10) ([4]; 60000 nM) |
| --- | --- | --- | --- | --- | --- | --- | --- | --- | --- | --- | --- | --- | --- | --- | --- |
| 3C:CCL2/MCP-1 | -0.0095 ± 0.021 | -0.017 ± 0.024 | 0.012 ± 0.0071 | -0.0065 ± 0.016 | -0.002 ± 0.0014 | 0.03 ± 0.013 | 0.011 ± 0.02 | -0.004 ± 0.0014 | 0.021 ± 0.031 | 0.004 ± 0.031 | -0.0225 ± 0.012 | 0.006 ± 0.016 | -0.01 ± 0.013 | -0.0135 ± 0.011 | 0.015 ± 0.042 |
| 3C:CD54/ICAM-1 | -0.012 ± 0.021 | -0.006 ± 0.021 | -0.004 ± 0.011 | -0.0125 ± 0.0021 | -0.019 ± 0.0071 | -0.006 ± 0.0085 | -0.0115 ± 0.00071 | -0.0275 ± 0.015 | -0.015 ± 0.011 | 0 ± 0.016 | 0.001 ± 0.0085 | 0.006 ± 0.0014 | -0.0095 ± 0.013 | -0.0115 ± 0.019 | -0.0095 ± 0.025 |
| 3C:CD62E/E-Selectin | -0.021 ± 0.034 | 0.003 ± 0.048 | 0.026 ± 0.038 | -0.0175 ± 0.011 | -0.0115 ± 0.0064 | 0.012 ± 0.016 | -0.035 ± 0.013 | -0.0375 ± 0.005 | -0.0415 ± 0.0078 | -0.0115 ± 0.0092 | -0.0105 ± 0.022 | 0.008 ± 0.024 | -0.0055 ± 0.022 | -0.027 ± 0.0014 | -0.016 ± 0.018 |
| 3C:CD87/uPAR | -0.0235 ± 0.07 | -0.0245 ± 0.023 | -0.0015 ± 0.015 | 0.012 ± 0.011 | -0.0005 ± 0.011 | -0.0145 ± 0.0092 | 0.03 ± 0.0085 | 0.032 ± 0.0085 | 0.052 ± 0.017 | 0.021 ± 0.0028 | 0.0045 ± 0.015 | -0.0075 ± 0.0064 | -0.0235 ± 0.036 | -0.022 ± 0.03 | -0.023 ± 0.027 |
| 3C:CD106/VCAM-1 | -0.019 ± 0.0071 | -0.035 | -0.014 ± 0.013 | -0.0215 ± 0.08 | -0.02 ± 0.055 | 0.0005 ± 0.079 | -0.0145 ± 0.018 | -0.033 ± 0.025 | -0.0395 ± 0.011 | -0.016 ± 0.027 | -0.027 ± 0.037 | -0.0025 ± 0.03 | -0.001 ± 0.024 | 0.0135 ± 0.0021 | 0.007 ± 0.016 |
| 3C:CD141/Thrombomodulin | -0.0065 ± 0.05 | -0.0475 ± 0.019 | -0.0415 ± 0.033 | 0.0505 ± 0.044 | 0.048 ± 0.02 | 0.064 ± 0.0099 | -0.0025 ± 0.028 | -0.0095 ± 0.00071 | -0.0075 ± 0.0035 | 0.0205 ± 0.043 | 0.0255 ± 0.04 | 0.046 ± 0.058 | -0.0285 ± 0.074 | 0 ± 0.03 | -0.0075 ± 0.026 |
| 3C:CD142/Tissue Factor | -0.0065 ± 0.029 | 0.006 ± 0.021 | 0.0155 ± 0.064 | 0.007 ± 0.082 | 0.0255 ± 0.073 | 0.0795 ± 0.046 | -0.042 ± 0.027 | -0.05 ± 0.028 | -0.0195 ± 0.029 | 0.038 ± 0.05 | -0.0105 ± 0.094 | 0.0165 ± 0.11 | -0.0025 ± 0.066 | 0.006 ± 0.033 | 0.0115 ± 0.036 |
| 3C:CXCL8/IL-8 | -0.034 ± 0.055 | -0.0325 ± 0.053 | 0.06 ± 0.0085 | 0.0145 ± 0.042 | 0.0035 ± 0.025 | 0.041 ± 0.0042 | -0.002 ± 0.0085 | -0.004 ± 0.0014 | 0.035 ± 0.042 | -0.0005 ± 0.0092 | 0.0005 ± 0.052 | 0.0445 ± 0.093 | 0.0025 ± 0.016 | -0.007 ± 0.0042 | 0.012 ± 0.0099 |
| 3C:HLA-DR | -0.0075 ± 0.025 | -0.0145 ± 0.0078 | -0.0065 ± 0.0035 | -0.0085 ± 0.023 | 0.0055 ± 0.0021 | 0.024 ± 0.014 | -0.0005 ± 0.0035 | -0.006 ± 0.016 | 0.0025 ± 0.016 | 0.006 ± 0.0028 | 0.0005 ± 0.021 | 0.0145 ± 0.03 | -0.006 ± 0.02 | -0.002 ± 0.016 | -0.005 ± 0.014 |
